Consider 12 compounds from patent publication US6355633B1, “Aryl sulfonic acids and derivatives as FSH antagonists” (American Home Products Corporation, priority 1999, dated 2002).

The test system of assay [1] is FSH-induced changes in ovarian follicular maturation. The assay can be described thus: Immature Rat Test Procedure (FSH-induced organ wet weight). It counts as in vivo. The settings on record: immature rats, twice daily for three days with half-maximal dose of hFSH; for IC50 (mg/Kg) ovaries: ovarian wet weight; for IC50 (mg/Kg) uterus: uterine wet weight. The method, then:
Immature Rat Test Procedure
In order to assess the ability of compounds to affect FSH-induced changes in ovarian follicular maturation in vivo, immature rats (18 days of age) are treated twice daily for three days with compound in the presence of a half-maximal dose of purified human FSH. Animals are treated via the i.p. or p.o. routes. On the fourth day following treatment, animals are euthanized and the ovaries, uterus and spleen (the spleen is a control tissue that should not respond to FHS stimulation) collected for wet weight determination. In each experiment animals treated with vehicle alone or FSH alone are used as negative and positive controls, respectively.

The target of assay [2] is T1, FSH receptor (Homo sapiens, UniProt P23945).
T1 sequence (P23945 18-695): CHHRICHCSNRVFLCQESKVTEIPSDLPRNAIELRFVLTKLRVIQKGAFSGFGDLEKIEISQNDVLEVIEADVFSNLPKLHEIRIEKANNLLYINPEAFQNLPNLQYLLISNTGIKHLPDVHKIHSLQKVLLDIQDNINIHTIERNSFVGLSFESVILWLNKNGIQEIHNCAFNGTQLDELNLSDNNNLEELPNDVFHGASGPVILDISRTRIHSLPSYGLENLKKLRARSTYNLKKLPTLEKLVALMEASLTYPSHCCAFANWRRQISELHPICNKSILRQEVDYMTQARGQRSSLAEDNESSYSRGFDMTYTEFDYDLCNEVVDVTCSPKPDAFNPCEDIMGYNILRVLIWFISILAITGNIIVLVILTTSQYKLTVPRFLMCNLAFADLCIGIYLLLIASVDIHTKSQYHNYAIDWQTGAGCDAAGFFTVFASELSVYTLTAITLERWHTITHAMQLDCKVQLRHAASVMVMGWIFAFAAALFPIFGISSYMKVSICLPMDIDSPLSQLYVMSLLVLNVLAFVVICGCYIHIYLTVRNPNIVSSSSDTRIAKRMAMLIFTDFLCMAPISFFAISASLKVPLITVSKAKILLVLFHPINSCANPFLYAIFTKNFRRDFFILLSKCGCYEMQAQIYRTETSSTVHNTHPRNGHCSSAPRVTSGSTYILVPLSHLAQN
The assay can be described thus: FSH Receptor Radioligand Membrane Binding Standard Pharmacological Test Procedure. Further details: expressed in transfected cells. The settings on record: [125I]FSH binding to membranes of CHO cells stably transfected with the human FSH receptor. In a few lines:
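Membranes from CHO cells stably expressing human FSH receptor; compounds pre-incubated 15 min at room temperature, then [125I]FSH added (diluted to 200 pM before addition) for 2 h at room temperature in pH 7.2 Tris buffer with protease inhibitors and BSA. Bound radioactivity after filtration counted by gamma counter; non-specific binding defined with unlabelled human FSH.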

The target of assay [3] is T1, FSH receptor. The assay can be described thus: In Vitro Bio-test Procedure of Agonists and Antagonists to the FSH Receptor (cAMP accumulation in CHO-3D2 cells). Further details: expressed in transfected cells; host or cells: CHO-3D2 cells. Format: cell-based. The protocol:
In Vitro Bio-test Procedure of Agonists and Antagonists to the FSH Receptor
The compounds were subsequently diluted in sterile procedure medium (Optimem (Gibco/BRL, Grand Island, N.Y.)/0.1% BSA) prior to use in the bio-procedure.
Preparation of CHO-3D2 Cells; CHO-3D2 cells were plated into 96-well Nunc tissue culture plates at a density of 30,000 cells/well in DMEM/F12 medium (Gibco/BRL, Grand Island, N.Y.) supplemented with 5% Fetal Bovine Serum (Hyclone, Fetal Clone II), 2 mM L-glutamine and penicillin/streptomycin (100 U/mL). Cells were plated one day prior to performing the bio-procedure.
Procedure: On the day of procedure, the wells were washed two times with 100 ul/well of pre-warmed (37 deg C.) procedure medium. After aspirating the second wash, an additional 100 ul of procedure medium was added to each well and the cells pre-incubated for 30-45 minutes at 37 deg C. In a humidified incubator with 5%CO2/95% air. The cells were then challenged with varying dilutions of the test substance(s) in a 50 ul total incubation volume in procedure medium for 30 minutes at 37 deg C. in the humidified incubator. The challenge was terminated by the addition of 50 ul of 0.2 N HCl to each well. CAMP accumulation in the medium was measured by radioimmunoassay.
Test Groups: In the 96-well format, the plate is organized into 12 columns each containing 8 rows of wells. The plate was split in half to test a single compound in both agonist and antagonist mode on the same plate.
For agonist mode, compounds were tested using 5 different concentrations in a dose-response paradigm using one column as a control (challenge medium alone) in agonist mode.
The 96-well format allowed for the capability to test 4 columns of compound, using one of the remaining columns for negative control (challenge medium alone) and the other remaining column for ampositive control (ED20 of FSH alone).
The doses chosen to test each compound were extrapolated from the initial screening process (receptor binding data). Along with the test compounds, FSH was run in agonist mode using doses ranging from 0.1 ng/mL-1000 ng/mL as a postive control. Cytotoxicity of the compounds were screened by treating cells with the highest concentration of each compound used in the cAMP procedure for 30 minutes followed by washing of the cells 2 times with 100 ul PBS. The cells were then incubated for 5 min at 37 deg C. in the presence of 50 ug/mL Fluorescein diacetate and 20 ug/mL Propidium iodide in 100 ul PBS. The cells were washed two times with 100 ul PBS followed by examination of the cells under a fluorescence microscope using a 490 nm filter. Viable cells stained green throughout, while dead cells had red fluorescent nuclei.
Analysis of Results: cAMP accumulation was expressed as fmol/mL. […] Data were analyzed statistically by analysis of variance and significant differences between treatments and control determined by Dunnett's test. In antagonist mode, a Duncan's test was used.
Reference Compounds: Test compounds were compared to the effect of purified or recombinant human FSH.

pIC50: −log10 of the molar value. Some results are limits rather than exact numbers.

In the case of `CSc1ccc(C(=O)Nc2ccc(/C=C/c3ccc(NC(=O)c4ccc(SC)c(S(=O)(=O)N5CCOCC5)c4)cc3S(=O)(=O)OC(C)C)c(S(=O)(=O)OC(C)C)c2)cc1S(=O)(=O)N1CCOCC1` [Example 27k, 2,2′-[(E)-1,2-Ethenediyl]bis[5-[[4-(methylthio)-3-(4-morpholinylsulfonyl)benzoyl]amino]benzenesulfonic Acid], Bis(1-methylethyl) Ester], in assay [1] (ip), the “IC50 (mg/Kg) ovaries” value was 1.1 mg/kg and the “IC50 (mg/Kg) uterus” value turned out to be 0.5 mg/kg. In assay [1] (po), the “IC50 (mg/Kg) ovaries” value stood at 4.8 mg/kg and the “IC50 (mg/Kg) uterus” value worked out at 1.9 mg/kg.

With `CC(C)OS(=O)(=O)c1cc(NC(=O)c2ccc(S(C)(=O)=O)c([N+](=O)[O-])c2)ccc1/C=C/c1ccc(NC(=O)c2ccc(S(C)(=O)=O)c([N+](=O)[O-])c2)cc1S(=O)(=O)OC(C)C` [Example 27m, 2,2′-[(E)-1,2-Ethenediyl]bis[5-[[(4-methylsulfonyl)-3-(nitro)-benzoyl]amino]benzenesulfonic Acid], Bis(1-methylethyl) Ester], in assay [1] (po), the “IC50 (mg/Kg) ovaries” value stood at 8.4 mg/kg and the “IC50 (mg/Kg) uterus” value was determined as 7.9 mg/kg.

For the compound `CCS(=O)(=O)c1ccc(C(=O)Nc2ccc(/C=C/c3ccc(NC(=O)c4ccc(S(=O)(=O)CC)cc4)cc3S(=O)(=O)OC(C)C)c(S(=O)(=O)OC(C)C)c2)cc1` [Example 27z, 2,2′-[(E)-1,2-Ethenediyl]bis[5-[[4-(ethylsulfonyl)benzoyl]amino]benzenesulfonic acid], Bis(1-methylethyl) Ester], in assay [1] (po), the “IC50 (mg/Kg) ovaries” value is over 10 mg/kg and the “IC50 (mg/Kg) uterus” value was determined as 10 mg/kg.

Regarding `O=C(O)C=CCS(=O)(=O)c1cccc(C(=O)Nc2ccc(C=Cc3ccc(NC(=O)c4cccc(S(=O)(=O)CC=CC(=O)O)c4)cc3S(=O)(=O)O)c(S(=O)(=O)O)c2)c1` [Example 36c, 4-{3-[4-(2-{4-[3-(3-Carboxy-prop-2-ene-1-sulfonyl)-benzoylamino]-2-sulfo-phenyl}-vinyl)-3-sulfo-phenylcarbomoyl]-benzenesulfonyl}-but-2-enoic Acid], the pIC50 is 5.27 at FSH receptor [2] and 5.02 on FSH receptor [3].

In the case of `O=C(CS(=O)(=O)c1ccc(C(=O)Nc2ccc(/C=C/c3ccc(NC(=O)c4ccc(S(=O)(=O)CC(=O)NCCO)cc4)cc3S(=O)(=O)O)c(S(=O)(=O)O)c2)cc1)NCCO` [Example 37a, 5-[[4-[[2-[(2-Hydroxyethyl)amino]-2-oxoethyl]sulfonyl]benzoyl]amino]-2-[(E)-2-[4-[[4-[[2-[(2-hydroxyethyl)amino]-2-oxoethyl]sulfonyl]benzoyl]amino]-2-sulfo-phenyl]ethenyl]benzenesulfonic Acid], the results for the pIC50 on FSH receptor [2] and at FSH receptor [3] were 5.70 and 5.68, respectively.

Consider `NC(=O)CS(=O)(=O)c1ccc(C(=O)Nc2ccc(/C=C/c3ccc(NC(=O)c4ccc(S(=O)(=O)CC(N)=O)cc4)cc3S(=O)(=O)O)c(S(=O)(=O)O)c2)cc1` [Example 37b, 5-[[4-[(2-Amino-2-oxoethyl)sulfonyl]benzoyl]amino]-2-[(E)-2-[4-[[4-[(2-amino-2-oxoethyl)sulfonyl]benzoyl]amino]-2-sulfophenyl]ethenyl]-benzenesulfonic Acid], for which the pIC50 on FSH receptor [2] is 5.54; at FSH receptor [3] it was 5.92.

In the case of `COCCOc1ccc(C(=O)Nc2ccc(/C=C/c3ccc(NC(=O)c4ccc(OC)c(S(=O)(=O)N5CCOCC5)c4)cc3S(=O)(=O)O)c(S(=O)(=O)O)c2)cc1` [Example 42, 5-[[4-(2-Methoxyethoxy)benzoyl]amino]-2-[(E)-2-[4-[[4-methoxy-3-(4-morpholinylsulfonyl)benzoyl]amino]-2-sulfo-phenyl]ethenyl]benzenesulfonic Acid], the pIC50 at FSH receptor [2] was 5.16; at FSH receptor [3], 5.57.

As for `COc1ccc(C(=O)Nc2ccc(CCc3ccc(NC(=O)c4ccc(OC)c(S(=O)(=O)N5CCCCC5)c4)cc3S(=O)(=O)O)c(S(=O)(=O)O)c2)cc1S(=O)(=O)N1CCCCC1` [Example 43b], the pIC50 at FSH receptor [2] was 4.77; at FSH receptor [3], 4.55.

Turning to `O=C(Nc1ccc(CCc2ccc(NC(=O)c3cccc(S(=O)(=O)N4CCOCC4)c3)cc2S(=O)(=O)O)c(S(=O)(=O)O)c1)c1cccc(S(=O)(=O)N2CCOCC2)c1` [Example 43d], the pIC50 at FSH receptor [2] was 4.92; at FSH receptor [3], 4.89.

Turning to `COCCOc1ccc(C(=O)Nc2ccc(CCc3ccc(NC(=O)c4ccc(OCCOC)c(S(=O)(=O)N5CCOCC5)c4)cc3S(=O)(=O)O)c(S(=O)(=O)O)c2)cc1S(=O)(=O)N1CCOCC1` [Example 43f, 2,2′-(1,2-Ethanediyl)bis[5-[[4-(2-methoxyethoxy)-3-(4-morpholinylsulfony)benzoyl]amino]benzenesulfonc Acid]], the results for the pIC50 at FSH receptor [2] and at FSH receptor [3] were 5.30 and 5.19, respectively.

Take `COc1ccc(C(=O)Nc2ccc(CCc3ccc(NC(=O)c4ccc(OC)c(S(=O)(=O)N5CCCC5)c4)cc3S(=O)(=O)O)c(S(=O)(=O)O)c2)cc1S(=O)(=O)N1CCCC1` [Example 43g, 2,2′-(1,2-Ethanediyl)bis[5-[[4-methoxy-3-(1-pyrrolidinylsulfonyl)benzoyl]amino]benzenesulfonic Acid]]: the figures for the pIC50 at FSH receptor [2] and at FSH receptor [3] were 5.15 and 4.92, respectively.

Turning to `COCCOc1ccc(C(=O)Nc2ccc(CCc3ccc(NC(=O)c4ccc(OC)c(S(=O)(=O)N5CCOCC5)c4)cc3S(=O)(=O)O)c(S(=O)(=O)O)c2)cc1` [Example 43h, 5-[[4-(2-Methoxyethoxy)benzoyl]amino]-2-[2-[4-[[4-methoxy-3-(4-morpholinylsulfonyl)benzoyl]amino]-2-sulfophenyl]ethyl]benzenesulfonic Acid], the pIC50 on FSH receptor [2] and on FSH receptor [3] was 4.92 throughout.

Broadly, the pIC50 is the negative decadic logarithm of the IC50, by convention in mol/L.
